Measurements taken from ChEMBL document CHEMBL6092168, “Identification of novel indolinone derivatives as CTSC inhibitors to treat inflammatory bowel disease by modulating inflammatory factors” (Eur J Med Chem, 2024).
Active and inactive are the calls of the source. The rule behind the calls is not given here.

Key:
[1] = test system: RAW264.7; assay: Anti-inflammatory activity in mouse RAW264.7 cells assessed as inhibition of LPS-induced TNF-alpha production at 5 uM preincubated for 1 hr followed by LPS addition and measured after 24 hrs by ELISA relative to control; format: functional; parameters: scale not given: the % may be the effect or the level left; details: time 25 hrs
[2] = Half life in male Sprague-Dawley rat at 10 mg/kg, po measured at 5 to 1440 mins by LC-MS/MS analysis; format: ADME, organism-based; details: in vivo, time 5-1440 min
[3] = AUC (0 to infinity) in male Sprague-Dawley rat at 2 mg/kg, iv measured at 5 to 1440 mins by LC-MS/MS analysis; format: ADME, organism-based; details: in vivo, time 5-1440 min
[4] = molecular target: T1, Dipeptidyl peptidase 1 (Mus musculus) (UniProt P97821); assay: In vivo inhibition of Cathepsin C in C57BL/6 mouse assessed as reduction in cathepsin C activity in blood administered orally once daily for 6 days by fluorescence based microplate reader; format: functional, organism-based; details: dose 5-30 mg/kg, route po, time 6.0 day
T1 sequence (whole entry): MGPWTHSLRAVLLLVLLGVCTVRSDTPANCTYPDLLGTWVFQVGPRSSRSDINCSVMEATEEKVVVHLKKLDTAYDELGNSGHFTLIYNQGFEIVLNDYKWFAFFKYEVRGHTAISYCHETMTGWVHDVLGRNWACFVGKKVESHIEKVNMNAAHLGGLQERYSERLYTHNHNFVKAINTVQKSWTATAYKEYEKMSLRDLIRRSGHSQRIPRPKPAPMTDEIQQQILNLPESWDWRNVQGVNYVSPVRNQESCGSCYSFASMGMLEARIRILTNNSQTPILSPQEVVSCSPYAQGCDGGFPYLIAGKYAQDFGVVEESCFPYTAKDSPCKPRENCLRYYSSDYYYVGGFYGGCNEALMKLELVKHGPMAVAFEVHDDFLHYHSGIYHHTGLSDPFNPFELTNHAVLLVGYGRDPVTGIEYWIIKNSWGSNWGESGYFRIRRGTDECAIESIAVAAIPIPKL

[5] = molecular target: T1, Dipeptidyl peptidase 1 (Mus musculus); assay: In vivo inhibition of Cathepsin C in C57BL/6 mouse assessed as reduction in cathepsin C activity in bone marrow at 30 mg/kg, po administered once daily for 6 days by fluorescence based microplate reader relative to control; format: functional, organism-based; details: time 6.0 day
[6] = test system: RAW264.7; assay: Anti-inflammatory activity in LPS-stimulated mouse RAW264.7 cells assessed as reduction in TNF-alpha production incubated for 24 hrs by ELISA; format: functional, cell-based; details: dose 0.62-5 µM
[7] = Acute toxicity in ICR mouse assessed as body weight loss at 1500 mg/kg, po administered daily for 7 days; format: organism-based; details: in vivo, 168 h, time 7 day
[8] = Acute toxicity in ICR mouse assessed as kidney pathological change at 1500 mg/kg, po administered daily for 7 days by H and E staining based analysis; format: organism-based; details: in vivo, 168 h, time 7 day
[9] = test system: Mus musculus; assay: Anti-inflammatory activity in DSS-induced ulcerative colitis male C57BL/6 mouse model assessed as reduction in disease activity index (DAI) score at 60 mg/kg administered via gavage for 10 days; format: functional, organism-based; details: time 10.0 day
[10] = test system: Mus musculus; assay: Anti-inflammatory activity in DSS-induced ulcerative colitis male C57BL/6 mouse model assessed as reduction in crypt loss in colon at 60 mg/kg administered via gavage for 10 days by H and E staining based analysis; format: functional, organism-based; details: time 10.0 day
[11] = test system: Mus musculus; assay: Anti-inflammatory activity in DSS-induced ulcerative colitis male C57BL/6 mouse model assessed as reduction in TNF-alpha expression in serum administered via gavage for 10 days by ELISA; format: functional, organism-based; details: dose 15-60 mg/kg, time 10.0 day
[12] = test system: Mus musculus; assay: Anti-inflammatory activity in DSS-induced ulcerative colitis male C57BL/6 mouse model assessed as reduction in IL-1 beta expression in colon administered via gavage for 10 days by ELISA; format: functional, organism-based; details: dose 15-60 mg/kg, time 10.0 day
[13] = test system: Mus musculus; assay: Anti-inflammatory activity in DSS-induced ulcerative colitis male C57BL/6 mouse model assessed as reduction in GM-CSF expression in serum administered via gavage for 10 days by ELISA; format: functional, organism-based; details: dose 15-60 mg/kg, time 10.0 day
[14] = test system: Mus musculus; assay: Anti-inflammatory activity in DSS-induced ulcerative colitis male C57BL/6 mouse model assessed as reduction in Cathepsin C level in serum at 60 mg/kg administered via gavage for 10 days relative to control; format: functional; parameters: scale not given: the % may be the effect or the level left; details: time 10 day
[15] = test system: Mus musculus; assay: Anti-inflammatory activity in DSS-induced ulcerative colitis male C57BL/6 mouse model assessed as reduction in neutrophil elastase level in colon at 60 mg/kg administered via gavage for 10 days relative to control; format: functional; parameters: scale not given: the % may be the effect or the level left; details: time 10 day
[16] = test system: Mus musculus; assay: Anti-inflammatory activity in DSS-induced ulcerative colitis male C57BL/6 mouse model assessed as reduction in Cathepsin G level in colon at 60 mg/kg administered via gavage for 10 days relative to control; format: functional; parameters: scale not given: the % may be the effect or the level left; details: time 10 day
[17] = test system: Mus musculus; assay: Anti-inflammatory activity in DSS-induced ulcerative colitis male C57BL/6 mouse model assessed as reduction in Cathepsin C level in serum at 15 to 30 mg/kg administered via gavage for 10 days; format: functional, organism-based; details: dose 15-30 mg/kg, time 10.0 day
[18] = molecular target: T2, Cathepsin G (Mus musculus) (UniProt P28293); assay: Induction of Cathepsin G degradation in C57BL/6 mouse bone marrow cells at 10 uM incubated for 24 hrs by Western blot analysis; format: cell-based; details: Bone marrow cell
T2 sequence (whole entry): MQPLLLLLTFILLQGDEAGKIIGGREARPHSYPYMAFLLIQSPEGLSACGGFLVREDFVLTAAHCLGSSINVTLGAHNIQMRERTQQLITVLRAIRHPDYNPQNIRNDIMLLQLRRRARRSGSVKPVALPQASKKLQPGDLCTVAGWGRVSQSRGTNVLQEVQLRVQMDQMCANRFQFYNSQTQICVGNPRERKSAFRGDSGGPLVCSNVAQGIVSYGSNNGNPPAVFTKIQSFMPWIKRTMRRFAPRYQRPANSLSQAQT

[19] = molecular target: T3, Neutrophil elastase (Mus musculus) (UniProt Q3UP87); assay: In vivo inhibition of neutrophil elastase in C57BL/6 mouse assessed as reduction in neutrophil elastase activity in bone marrow administered orally once daily for 6 days by fluorescence based microplate reader; format: functional, organism-based; details: dose 5-30 mg/kg, route po, time 6.0 day
T3 sequence (whole entry): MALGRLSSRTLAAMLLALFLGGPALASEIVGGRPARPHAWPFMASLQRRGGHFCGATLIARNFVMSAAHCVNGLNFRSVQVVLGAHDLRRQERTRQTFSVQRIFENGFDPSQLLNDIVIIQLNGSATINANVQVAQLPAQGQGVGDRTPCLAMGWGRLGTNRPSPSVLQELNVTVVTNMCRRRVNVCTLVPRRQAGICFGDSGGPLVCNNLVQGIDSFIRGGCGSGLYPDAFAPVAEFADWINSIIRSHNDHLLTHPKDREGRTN

[20] = test system: Mus musculus; assay: Anti-inflammatory activity in DSS-induced ulcerative colitis male C57BL/6 mouse model assessed as decrease in body weight loss at 15 mg/kg administered via gavage for 10 days; format: functional, organism-based; details: time 10.0 day
[21] = test system: Mus musculus; assay: Anti-inflammatory activity in DSS-induced ulcerative colitis male C57BL/6 mouse model assessed as reduction in neutrophil elastase level in serum at 15 to 30 mg/kg administered via gavage for 10 days; format: functional, organism-based; details: dose 15-30 mg/kg, time 10.0 day
[22] = test system: Mus musculus; assay: Anti-inflammatory activity in DSS-induced ulcerative colitis male C57BL/6 mouse model assessed as reduction in proteinase 3 level in colon at 15 to 30 mg/kg administered via gavage for 10 days; format: functional, organism-based; details: dose 15-30 mg/kg, time 10.0 day

O=C1Nc2c(cccc2-c2ccc(NC3CCOCC3)cc2)/C1=C/c1ccnc2ccccc12 gave an Activity [1] of 83.6%, a half-life [2] of 1.76 h and an AUC [3] of 915.64 ng·h/mL. For the same molecule, the inhibition [4] was “Dose-dependent-effect”, the inhibition [5] was 36.5% and the Activity [6] was “Dose-dependent-effect”. For the same molecule, the Activity [7] was “Non-toxic”, the Activity [8] was “Non-toxic” and the Activity [9] was “Active”. For the same molecule, the Activity [10] was “Active”, the Activity [11] was “Dose-dependent-effect; Significant Reduction Observed In High Dose Group” and the Activity [12] was “Dose-dependent-effect; Significant Reduction Observed In High Dose Group”. For the same molecule, the Activity [13] was “Dose-dependent-effect; Significant Reduction Observed In High Dose Group”, the Activity [14] was 37% and the Activity [15] was 50%. The Activity [16] was 51%, the Activity [17] was “inactive” and the Activity [18] was “Active”. The inhibition [19] was “Dose-dependent-effect”, the Activity [20] was “Active; Weight Loss Was Lower Than In Mesalazine Group” and the Activity [21] was “inactive”. For the same molecule, the Activity [22] was “inactive”.
